From patent publication US11345912B2, “Directed evolution of multivalent glycopeptides that tightly bind to target proteins” (Brandeis University, priority 2013, dated 2022)
*1 amine or outer side, *2 acyl side, *3 side chain or, on linkers, in order; H or OH if unused. Where a SMILES comes first, the peptide text is derived from it. [ ]: non-standard residue; d: D form. The star is where a group is joined. X1 = O=C([C@H](CCc1cn(C2CCC(OC3O[C@H](CO[C@H]4O[C@H](CO[C@H]5O[C@H](CO)[C@@H](O)[C@H](O)[C@@H]5O[C@H]5O[C@H](CO)[C@@H](O)[C@H](O)[C@@H]5O)[C@@H](O)[C@H](O[C@H]5O[C@H](CO)[C@@H](O)[C@H](O)[C@@H]5O[C@H]5O[C@H](CO)[C@@H](O)[C@H](O)[C@@H]5O)[C@@H]4O)[C@@H](O)[C@H](O[C@H]4O[C@H](CO)[C@@H](O)[C@H](O)[C@@H]4O[C@H]4O[C@H](CO)[C@@H](O)[C@H](O)[C@@H]4O[C@H]4O[C@H](CO)[C@@H](O)[C@H](O)[C@@H]4O)[C@@H]3O)CC2)nn1)N[*:1])[*:2]; For = O=C*

System: 2G12
Assay: Binding curve and KD determination of 2G12-glycopeptide interaction (radiolabeled glycopeptide, protein G magnetic bead capture, scintillation counting)
Details: for Fmax [%] / Kd: Table 6 mutational analysis, radioactive bead binding assay; for Kd: ribosomally translated
How it was run: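 Radiolabeled glycopeptide (<4 pmol) from PURE-system translation with click glycosylation was incubated with 100 nM 2G12 at room temperature. Complexes were captured on protein G beads and eluted at 70° C. Bound and unbound fractions were counted by scintillation, run at least in triplicate, and KD derived from binding curves.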

CC[C@H](C)[C@H](NC(=O)[C@H](CCCNC(=N)N)NC(=O)[C@H](CCCNC(=N)N)NC(=O)CNC(=O)[C@H](CC(=O)O)NC(=O)[C@H](CC(N)=O)NC(=O)[C@H](CC(C)C)NC(=O)[C@@H](NC(=O)[C@H](CCc1cn(C2CCC(OC3O[C@H](CO[C@H]4O[C@H](CO[C@H]5O[C@H](CO)[C@@H](O)[C@H](O)[C@@H]5O[C@H]5O[C@H](CO)[C@@H](O)[C@H](O)[C@@H]5O)[C@@H](O)[C@H](O[C@H]5O[C@H](CO)[C@@H](O)[C@H](O)[C@@H]5O[C@H]5O[C@H](CO)[C@@H](O)[C@H](O)[C@@H]5O)[C@@H]4O)[C@@H](O)[C@H](O[C@H]4O[C@H](CO)[C@@H](O)[C@H](O)[C@@H]4O[C@H]4O[C@H](CO)[C@@H](O)[C@H](O)[C@@H]4O[C@H]4O[C@H](CO)[C@@H](O)[C@H](O)[C@@H]4O)[C@@H]3O)CC2)nn1)NC=O)C(C)C)C(=O)N[C@H](C(=O)N[C@@H](CCC(N)=O)C(=O)N[C@@H](CCc1cn(C2CCC(OC3O[C@H](CO[C@H]4O[C@H](CO[C@H]5O[C@H](CO)[C@@H](O)[C@H](O)[C@@H]5O[C@H]5O[C@H](CO)[C@@H](O)[C@H](O)[C@@H]5O)[C@@H](O)[C@H](O[C@H]5O[C@H](CO)[C@@H](O)[C@H](O)[C@@H]5O[C@H]5O[C@H](CO)[C@@H](O)[C@H](O)[C@@H]5O)[C@@H]4O)[C@@H](O)[C@H](O[C@H]4O[C@H](CO)[C@@H](O)[C@H](O)[C@@H]4O[C@H]4O[C@H](CO)[C@@H](O)[C@H](O)[C@@H]4O[C@H]4O[C@H](CO)[C@@H](O)[C@H](O)[C@@H]4O)[C@@H]3O)CC2)nn1)C(=O)N[C@@H](CO)C(=O)N[C@@H](CS)C(=O)N[C@@H](CCC(=O)O)C(=O)N[C@@H](CC(C)C)C(=O)N1CCC[C@H]1C(=O)N[C@@H](CCc1cn(C2CCC(OC3O[C@H](CO[C@H]4O[C@H](CO[C@H]5O[C@H](CO)[C@@H](O)[C@H](O)[C@@H]5O[C@H]5O[C@H](CO)[C@@H](O)[C@H](O)[C@@H]5O)[C@@H](O)[C@H](O[C@H]5O[C@H](CO)[C@@H](O)[C@H](O)[C@@H]5O[C@H]5O[C@H](CO)[C@@H](O)[C@H](O)[C@@H]5O)[C@@H]4O)[C@@H](O)[C@H](O[C@H]4O[C@H](CO)[C@@H](O)[C@H](O)[C@@H]4O[C@H]4O[C@H](CO)[C@@H](O)[C@H](O)[C@@H]4O[C@H]4O[C@H](CO)[C@@H](O)[C@H](O)[C@@H]4O)[C@@H]3O)CC2)nn1)C(=O)N[C@H](C(=O)N[C@@H](CCCNC(=N)N)C(=O)N[C@@H](CCCNC(=N)N)C(=O)N[C@@H](CO)C(=O)NCC(=O)N[C@@H](CO)C(=O)NCC(=O)N[C@@H](CO)C(=O)N[C@@H](CC(C)C)C(=O)NCC(=O)N[C@@H](Cc1c[nH]cn1)C(=O)N[C@@H](Cc1c[nH]cn1)C(=O)N[C@@H](Cc1c[nH]cn1)C(=O)N[C@@H](Cc1c[nH]cn1)C(=O)N[C@@H](Cc1c[nH]cn1)C(=O)N[C@@H](Cc1c[nH]cn1)C(=O)N[C@@H](CCCNC(=N)N)C(=O)N[C@@H](CC(=O)O)C(=O)N[C@@H](Cc1ccc(O)cc1)C(=O)N[C@@H](CCCCN)C(=O)N[C@@H](CC(=O)O)C(=O)N[C@@H](CC(=O)O)C(=O)N[C@@H](CC(=O)O)C(=O)N[C@@H](CC(=O)O)C(=O)N[C@@H](CCCCN)C(=O)O)C(C)C)C(C)C (some centres unmarked) [Clone 10F5-Δ11, XVLNDGRRIVQXSCELPXVRRS]
Fmax [%]: 17%
Kd: > 200 nM

CC[C@H](C)[C@H](NC(=O)[C@H](CO)NC(=O)[C@H](CCCNC(=N)N)NC(=O)[C@H](CCc1cn(C2CCC(OC3O[C@H](CO[C@H]4O[C@H](CO[C@H]5O[C@H](CO)[C@@H](O)[C@H](O)[C@@H]5O[C@H]5O[C@H](CO)[C@@H](O)[C@H](O)[C@@H]5O)[C@@H](O)[C@H](O[C@H]5O[C@H](CO)[C@@H](O)[C@H](O)[C@@H]5O[C@H]5O[C@H](CO)[C@@H](O)[C@H](O)[C@@H]5O)[C@@H]4O)[C@@H](O)[C@H](O[C@H]4O[C@H](CO)[C@@H](O)[C@H](O)[C@@H]4O[C@H]4O[C@H](CO)[C@@H](O)[C@H](O)[C@@H]4O[C@H]4O[C@H](CO)[C@@H](O)[C@H](O)[C@@H]4O)[C@@H]3O)CC2)nn1)NC=O)C(=O)N1CCC[C@H]1C(=O)N[C@@H](Cc1c[nH]c2ccccc12)C(=O)N[C@@H](Cc1ccc(O)cc1)C(=O)N[C@H](C(=O)N[C@@H](Cc1ccc(O)cc1)C(=O)N[C@@H](CCCNC(=N)N)C(=O)N[C@@H](Cc1c[nH]c2ccccc12)C(=O)N[C@@H](CC(C)C)C(=O)N1CCC[C@H]1C(=O)N[C@@H](CC(N)=O)C(=O)NCC(=O)N[C@@H](CO)C(=O)NCC(=O)N[C@@H](CO)C(=O)N[C@@H](CC(C)C)C(=O)NCC(=O)N[C@@H](Cc1c[nH]cn1)C(=O)N[C@@H](Cc1c[nH]cn1)C(=O)N[C@@H](Cc1c[nH]cn1)C(=O)N[C@@H](Cc1c[nH]cn1)C(=O)N[C@@H](Cc1c[nH]cn1)C(=O)N[C@@H](Cc1c[nH]cn1)C(=O)N[C@@H](CCCNC(=N)N)C(=O)N[C@@H](CC(=O)O)C(=O)N[C@@H](Cc1ccc(O)cc1)C(=O)N[C@@H](CCCCN)C(=O)N[C@@H](CC(=O)O)C(=O)N[C@@H](CC(=O)O)C(=O)N[C@@H](CC(=O)O)C(=O)N[C@@H](CC(=O)O)C(=O)N[C@@H](CCCCN)C(=O)O)[C@@H](C)O (some centres unmarked) [Clone 10V1-Δ19, XRSIPWYTYRWLPN] (For-[X1]RSIPWYTYRWLPNGSGSLGHHHHHHRDYKDDDDK-OH; C-terminus assumed)
Fmax [%]: 20%
Kd: ~7.5 nM
binding to 2G12 after truncation (in words) (truncated clones, Table 6): tight binding
